Patent US20230227838A1, “ENHANCED CELL SURVIVAL AGAINST BIOTIC AND ABIOTIC STRESSES THROUGH SALICYLICK ACID-INDUCED NPR1 CONDENSATES” (priority 2020, published 2023)

T1: NPR1-GFP (Arabidopsis thaliana, UniProt P93002)
T1 construct: expressed in transfected cells; host or cells: Arabidopsis Col-0 seedlings, Agrobacterium-mediated transient expression
T1 sequence (P93002 1-593): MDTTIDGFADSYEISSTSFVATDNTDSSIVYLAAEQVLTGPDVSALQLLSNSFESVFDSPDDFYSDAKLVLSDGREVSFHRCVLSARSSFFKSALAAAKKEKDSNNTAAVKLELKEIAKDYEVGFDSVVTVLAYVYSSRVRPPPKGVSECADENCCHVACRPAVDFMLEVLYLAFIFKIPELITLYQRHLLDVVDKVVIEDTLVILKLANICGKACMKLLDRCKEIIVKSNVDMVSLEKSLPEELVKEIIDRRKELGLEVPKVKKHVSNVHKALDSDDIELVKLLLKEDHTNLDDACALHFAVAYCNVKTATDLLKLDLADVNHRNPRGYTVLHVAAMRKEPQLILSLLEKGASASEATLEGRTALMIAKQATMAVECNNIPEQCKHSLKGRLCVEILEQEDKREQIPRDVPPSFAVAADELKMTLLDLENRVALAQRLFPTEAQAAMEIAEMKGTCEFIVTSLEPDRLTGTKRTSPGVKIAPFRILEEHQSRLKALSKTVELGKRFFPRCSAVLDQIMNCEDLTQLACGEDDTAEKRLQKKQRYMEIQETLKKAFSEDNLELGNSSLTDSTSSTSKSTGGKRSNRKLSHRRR


How the values were obtained:
NPR1-GFP = target: T1, NPR1-GFP; experiment: Localization of NPR1-GFP and sim3-GFP, transient expression in Arabidopsis seedlings; assay type: cell-based; conditions: for nuclear-cytoplasmic partitioning of NPR1-GFP: 2 hr
EDS1 = experiment: Interaction with EDS1 (co-IP in planta, pull-down in E. coli); assay type: binding, Arabidopsis thaliana; conditions: in planta (1 mM SA 5 hr) and in E. coli
Description: Plasmid construction and E. coli-based ubiquitination: The coding sequences for all Arabidopsis genes were amplified from cDNA. Point mutations of AtNPR1 (AT1G64280) were generated using the QuikChange II site-directed mutagenesis kit (Agilent). Overlap PCR was used to generate the deletion/truncation mutations of AtCUL3A (AT1G26830) and AtNPR1. The WT and mutated coding sequences for all genes and gene fusions were sub-cloned into the pDONR207 gateway donor vector and confirmed by sequencing. The obtained entry vectors were recombined into either plant or E. coli destination vectors without or with an N- or C-terminal tag. For in planta expression, genes were recombined into the plant binary vectors pK7FWG2, pSITE-4NB and pLN462 to generate C-terminal eGFP, mCherry and HA fusions, respectively; into pK7WGF2, pEG201, pEG202, pEG203 and pEG204 to generate N-terminal eGFP, HA, FLAG, Myc and V5 fusions, respectively. […] For bimolecular fluorescence complementation (BiFC), entry vectors carrying the coding sequences of genes and their mutant variants were recombined into the pSITE-cEYFP-N1 binary vector for C-terminal fusion with the cYFP half (YC), or into the pSITE-nEYFP-C1 for N-terminal fusion with the nYFP half (YN). […]

FLAG-WRKY70 = experiment: NPR1-CRL3 ubiquitination cascade reconstituted in E. coli; assay type: biochemical, Arabidopsis thaliana; conditions: 1 mM sodium salicylate

Molecule	nuclear-cytoplasmic partitioning of NPR1-GFP (NPR1-GFP; 1 mM SA)	nuclear-cytoplasmic partitioning of NPR1-GFP (NPR1-GFP; 5 mM SA)	formation of NPR1-GFP bodies in nucleus and cytoplasm (NPR1-GFP; SA treatment 2 hr)	interaction with EDS1 (EDS1)	ubiquitination of WRKY70 in reconstituted NPR1-CRL3 cascade (FLAG-WRKY70)	subcellular localization (NPR1-GFP; after SA treatment)	cytoplasmic body formation (NPR1-GFP; lower SA concentration (1 mM), Arabidopsis seedlings)
O=C(O)c1ccccc1O [SA, salicylic acid]	predominant nuclear accumulation of NPR1-GFP	fluorescence was detected also in the cytoplasm	induced formation of discrete NPR1-GFP bodies	–	–	–	–
NPR1: wild-type Arabidopsis thaliana NPR1 protein, positive regulator of systemic acquired resistance	–	–	–	direct interaction	could mediate ubiquitination of WRKY70	–	–
sim3: SUMOylation-deficient mutant of NPR1 (protein, left off: small tags and cut ends, SUMOylation-deficient mutant of NPR1) MDTTIDGFADSYEISSTSFVATDNTDSSIVYLAAEQVLTGPDVSALQLLSNSFESVFDSPDDFYSDAKLVLSDGREVSFHRCVLSARSSFFKSALAAAKKEKDSNNTAAVKLELKEIAKDYEVGFDSVVTVLAYVYSSRVRPPPKGVSECADENCCHVACRPAVDFMLEVLYLAFIFKIPELITLYQRHLLDVVDKVVIEDTLVILKLANICGKACMKLLDRCKEIIVKSNVDMVSLEKSLPEELVKEIIDRRKELGLEVPKVKKHVSNVHKALDSDDIELVKLLLKEDHTNLDDACALHFAVAYCNVKTATDLLKLDLADVNHRNPRGYTVLHVAAMRKEPQLAASALEKGASASEATLEGRTALMIAKQATMAVECNNIPEQCKHSLKGRLCVEILEQEDKREQIPRDVPPSFAVAADELKMTLLDLENRVALAQRLFPTEAQAAMEIAEMKGTCEFIVTSLEPDRLTGTKRTSPGVKIAPFRILEEHQSRLKALSKTVELGKRFFPRCSAVLDQIMNCEDLTQLACGEDDTAEKRLQKKQRYMEIQETLKKAFSEDNLELGNSSLTDSTSSTSKSTGGKRSNRKLSHRRR	–	–	–	could interact	could mediate ubiquitination of WRKY70	predominant cytoplasmic localization	cytoplasmic bodies were also observed at the lower SA concentration
